Patent US20060140994A1, “Application of an antimicrobial agent on an elastomeric article” (priority 2004, published 2006)

Tested on: Staphylococcus aureus (ATCC #27660)
Assay: Rapid Germicidal Time Kill, ASTM protocol 04-123409-106
Type: cell-based
Details: for log reduction of organisms: nitrile gloves, versus applied organisms estimated from latex control
Protocol: To test the antimicrobial efficacy of a polyhexamethylene biguanide, such as available commercially under the trademark Cosmosil® CQ from Arch Chemicals, Inc., Norwalk, Conn., we treated nitrile examination gloves according to ASTM protocol 04-123409-106 “Rapid Germicidal Time Kill.” Briefly, about 50 μL of an overnight culture of Staphylococcus aureus (ATCC #27660, 5×10^8CFU/mL) was applied to the glove material. After a total contact time of about 6 minutes the glove fabric was placed into a neutralizing buffer. Surviving organisms were extracted and diluted in Letheen broth. Aliquots were spread plated on Tryptic Soy Agar plates. Plates were incubated for 48 hours at 35° C. Following incubation the surviving organisms were counted and the colony forming units (CFU) were recorded. The reduction (log10) in surviving organisms from test material versus control fabric was calculated:
Log10 CFU/swatch Control−Log10 CFU/swatch Test Article=Log10 Reduction.

polyhexamethylene biguanide was tested, and the “log reduction of Staphylococcus aureus” value (microtextured nitrile glove, machine applied at 0.03 g/glove) was “greater than four”, the “log reduction of organisms” value (hand sprayed with no heat) was “greater than one” and the “log reduction of organisms” value (machine sprayed under heated conditions) was “greater than 5 log”.
